Experimental data reported in US20230115945A1, “AMINOPYRIMIDINE COMPOUNDS” (TYRA BIOSCIENCES, INC., priority 2019, published 2023).

Columns and labels:
Details in all cases: 11-point 3-fold dilution, qPCR readout
FGFR2 = target: T1, FGFR2 (Homo sapiens, UniProt P21802); test: Kinase binding assay (Kd), FGFR2
T1 construct: made in house; host or cells: E. coli host derived from BL21, infected with T7 phage
Description: (§1) Kinase-tagged T7 phage strains were prepared in an E. coli host derived from the BL21 strain. E. coli were grown to log-phase and infected with T7 phage and incubated with shaking at 32° C. until lysis. The lysates were centrifuged and filtered to remove cell debris. Streptavidin-coated magnetic beads were treated with biotinylated small molecule ligands for 30 minutes at room temperature to generate affinity resins for kinase assays. The liganded beads were blocked with excess biotin and washed with blocking buffer SeaBlock (Pierce), 1% BSA, 0.05% Tween 20, 1 mM DTT to remove unbound ligand and to reduce non-specific binding. Binding reactions were assembled by combining kinases, liganded affinity beads, and test compounds in 1× binding buffer (20% SeaBlock, 0.17×PBS, 0.05% Tween 20, 6 mM DTT).
(§2) Test compounds were prepared as 111X stocks in 100% DMSO. Kds were determined using an 11-point 3-fold compound dilution series with three DMSO control points. All compounds for Kd measurements are distributed by acoustic transfer (non-contact dispensing) in 100% DMSO. The compounds were then diluted directly into the assays such that the final concentration of DMSO was 0.9%. All reactions performed in polypropylene 384-well plate. Each was a final volume of 0.02 ml. The assay plates were incubated at room temperature with shaking for 1 hour and the affinity beads were washed with wash buffer (lx PBS, 0.05% Tween 20). The beads were then re-suspended in elution buffer (lx PBS, 0.05% Tween 20, 0.5 μM non-biotinylated affinity ligand) and incubated at room temperature with shaking for 30 minutes. The kinase concentration in the eluates was measured by qPCR.
(§3) Binding constants were calculated with a standard dose-response curve using the Hill equation: […]
(§4) The Hill Slope was set to −1. Curves were fitted using a non-linear least square fit with the Levenberg-Marquardt algorithm.

FGFR4 = target: T2, FGFR4 (Homo sapiens, UniProt P22455); test: Kinase binding assay (Kd), FGFR4
T2 construct: made in house; host or cells: E. coli host derived from BL21, infected with T7 phage
T2 sequence (P22455 22-802): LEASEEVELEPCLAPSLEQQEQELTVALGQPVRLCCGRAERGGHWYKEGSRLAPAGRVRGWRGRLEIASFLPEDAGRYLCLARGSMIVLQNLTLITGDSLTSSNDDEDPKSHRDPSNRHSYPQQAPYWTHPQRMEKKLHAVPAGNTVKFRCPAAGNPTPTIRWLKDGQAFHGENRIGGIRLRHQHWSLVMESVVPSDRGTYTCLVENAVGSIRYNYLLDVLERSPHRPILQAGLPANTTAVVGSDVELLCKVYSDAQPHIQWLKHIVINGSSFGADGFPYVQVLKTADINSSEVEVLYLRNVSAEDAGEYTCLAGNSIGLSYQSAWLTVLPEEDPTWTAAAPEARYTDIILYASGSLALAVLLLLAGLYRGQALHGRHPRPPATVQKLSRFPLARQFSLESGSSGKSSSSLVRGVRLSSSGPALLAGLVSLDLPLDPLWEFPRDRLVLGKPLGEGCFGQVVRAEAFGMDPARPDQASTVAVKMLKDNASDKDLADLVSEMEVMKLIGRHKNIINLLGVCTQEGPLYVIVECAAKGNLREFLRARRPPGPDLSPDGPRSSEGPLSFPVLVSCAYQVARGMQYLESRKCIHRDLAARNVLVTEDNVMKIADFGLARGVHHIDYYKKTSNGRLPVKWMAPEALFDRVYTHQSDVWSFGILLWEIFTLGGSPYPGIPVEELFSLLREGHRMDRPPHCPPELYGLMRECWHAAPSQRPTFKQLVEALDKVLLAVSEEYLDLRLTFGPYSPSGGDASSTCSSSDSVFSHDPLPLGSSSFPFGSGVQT
Description: as §1, §2, §3, §4

FGFR3 (V555M) = target: T3, FGFR3 (V555M) (Homo sapiens, UniProt P22607, V555M); test: Kinase binding assay (Kd), FGFR3 (V555M)
T3 construct: made in house; host or cells: E. coli host derived from BL21, infected with T7 phage
T3 sequence (P22607 23-806 V555M): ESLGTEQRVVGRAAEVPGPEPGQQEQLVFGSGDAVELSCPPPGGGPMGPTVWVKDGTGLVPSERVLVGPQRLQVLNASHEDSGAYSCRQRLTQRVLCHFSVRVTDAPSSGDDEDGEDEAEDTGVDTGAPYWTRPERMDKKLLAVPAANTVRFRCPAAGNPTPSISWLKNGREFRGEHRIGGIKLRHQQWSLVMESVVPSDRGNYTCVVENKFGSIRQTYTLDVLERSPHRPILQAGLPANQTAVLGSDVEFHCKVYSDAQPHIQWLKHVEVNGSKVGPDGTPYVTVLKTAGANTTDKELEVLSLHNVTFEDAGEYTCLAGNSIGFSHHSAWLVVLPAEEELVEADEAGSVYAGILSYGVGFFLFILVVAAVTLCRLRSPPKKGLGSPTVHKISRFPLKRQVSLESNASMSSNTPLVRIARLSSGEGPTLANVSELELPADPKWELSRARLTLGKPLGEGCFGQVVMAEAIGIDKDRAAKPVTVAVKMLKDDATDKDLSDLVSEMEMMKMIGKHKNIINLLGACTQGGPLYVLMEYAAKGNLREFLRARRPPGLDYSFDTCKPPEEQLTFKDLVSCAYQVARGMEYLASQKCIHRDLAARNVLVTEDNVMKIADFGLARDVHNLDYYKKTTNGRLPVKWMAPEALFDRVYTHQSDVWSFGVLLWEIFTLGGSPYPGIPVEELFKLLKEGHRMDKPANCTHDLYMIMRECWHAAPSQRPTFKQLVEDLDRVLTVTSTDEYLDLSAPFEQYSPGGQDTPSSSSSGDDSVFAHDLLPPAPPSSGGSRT
Description: as §1, §2, §3, §4

FGFR1 = target: T4, FGFR1 (Homo sapiens, UniProt P11362); test: Kinase binding assay (Kd), FGFR1
T4 construct: made in house; host or cells: E. coli host derived from BL21, infected with T7 phage
T4 sequence (P11362 22-822): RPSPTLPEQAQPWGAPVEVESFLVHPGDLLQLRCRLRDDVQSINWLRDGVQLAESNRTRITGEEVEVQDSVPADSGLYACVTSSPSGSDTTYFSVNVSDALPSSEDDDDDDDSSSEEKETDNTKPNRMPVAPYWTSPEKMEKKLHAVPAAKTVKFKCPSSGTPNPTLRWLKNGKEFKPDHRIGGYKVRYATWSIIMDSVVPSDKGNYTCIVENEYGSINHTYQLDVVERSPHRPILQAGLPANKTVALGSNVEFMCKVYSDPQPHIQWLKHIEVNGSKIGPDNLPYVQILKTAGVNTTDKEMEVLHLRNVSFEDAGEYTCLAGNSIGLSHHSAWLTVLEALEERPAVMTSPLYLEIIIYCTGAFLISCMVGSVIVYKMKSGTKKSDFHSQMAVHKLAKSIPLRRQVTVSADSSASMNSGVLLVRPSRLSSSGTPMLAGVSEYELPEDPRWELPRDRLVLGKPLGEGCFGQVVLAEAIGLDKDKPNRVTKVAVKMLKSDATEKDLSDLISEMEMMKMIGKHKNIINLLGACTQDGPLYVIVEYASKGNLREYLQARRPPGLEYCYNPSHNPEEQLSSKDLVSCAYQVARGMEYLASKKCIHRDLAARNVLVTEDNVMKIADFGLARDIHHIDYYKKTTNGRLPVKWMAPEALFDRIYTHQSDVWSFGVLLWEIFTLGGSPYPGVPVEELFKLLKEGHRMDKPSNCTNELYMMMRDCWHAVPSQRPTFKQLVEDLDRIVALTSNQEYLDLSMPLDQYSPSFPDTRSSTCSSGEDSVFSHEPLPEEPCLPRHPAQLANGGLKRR
Description: as §1, §2, §3, §4

FGFR3 = target: T5, FGFR3 (Homo sapiens, UniProt P22607); test: Kinase binding assay (Kd), FGFR3
T5 construct: made in house; host or cells: E. coli host derived from BL21, infected with T7 phage
T5 sequence (P22607 23-806): as the sequence (P22607 23-806 V555M) above, with M533V counted along it
Description: as §1, §2, §3, §4

T1 sequence (P21802 22-821): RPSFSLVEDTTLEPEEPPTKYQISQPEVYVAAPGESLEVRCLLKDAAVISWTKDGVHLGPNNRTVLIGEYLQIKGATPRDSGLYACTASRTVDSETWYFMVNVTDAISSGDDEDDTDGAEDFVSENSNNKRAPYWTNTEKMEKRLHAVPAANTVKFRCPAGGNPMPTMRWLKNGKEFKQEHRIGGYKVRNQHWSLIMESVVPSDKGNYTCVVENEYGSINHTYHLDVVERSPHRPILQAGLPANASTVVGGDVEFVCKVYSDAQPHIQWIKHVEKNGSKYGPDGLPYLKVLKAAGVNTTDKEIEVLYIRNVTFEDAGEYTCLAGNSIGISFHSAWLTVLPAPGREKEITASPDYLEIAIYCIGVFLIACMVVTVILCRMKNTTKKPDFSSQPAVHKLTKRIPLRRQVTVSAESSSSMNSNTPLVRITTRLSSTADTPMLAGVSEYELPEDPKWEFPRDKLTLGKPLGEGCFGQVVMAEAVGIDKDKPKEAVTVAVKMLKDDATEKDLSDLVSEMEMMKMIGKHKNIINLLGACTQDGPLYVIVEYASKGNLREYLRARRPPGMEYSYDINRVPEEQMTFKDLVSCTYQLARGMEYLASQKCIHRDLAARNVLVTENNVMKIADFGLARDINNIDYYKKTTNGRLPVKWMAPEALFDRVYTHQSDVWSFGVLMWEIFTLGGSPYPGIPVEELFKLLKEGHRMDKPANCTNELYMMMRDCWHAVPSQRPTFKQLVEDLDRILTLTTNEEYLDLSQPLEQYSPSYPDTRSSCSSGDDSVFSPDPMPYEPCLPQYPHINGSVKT

Row | Structure (SMILES) | Kd (FGFR2) [nM] | Kd (FGFR4) [nM] | Kd (FGFR3 (V555M)) [nM] | Kd (FGFR1) [nM] | Kd (FGFR3) [nM]
1 | COc1cc(N2CCS(=N)(=O)CC2)ccc1Nc1nccc(-n2ccc3ccccc32)n1 [Example 45, N-[4-(1-Imino-1-oxo-1,4-thiazinan-4-yl)-2-methoxy-phenyl]-4-indol-1-yl-pyrimidin-2-amine] | 9000 | 5100 | 1100 | 7800 | 4900
2 | COc1cc(N2CCS(=N)(=O)CC2)ccc1Nc1ncc(C)c(-n2ccc3ccccc32)n1 [Example 46, N-[4-(1-imino-1-oxo-1,4-thiazinan-4-yl)-2-methoxy-phenyl]-4-indol-1-yl-5-methyl-pyrimidin-2-amine] | 4400 | 5600 | 160 | 2700 | 2200
3 | N=S(=O)(c1ccc(Nc2ncc(Cl)c(-c3c[nH]c4ccccc34)n2)cc1)C1CC1 (stereo not shown) [Example 47, 5-Chloro-N-[4-(cyclopropyl-sulfonimidoyl)phenyl]-4-(1H-indol-3-yl)pyrimidin-2-amine] | 16 | 190 | 4 | 18 | 37
4 | Cc1cnc(Nc2ccc(S(C)(=N)=O)cc2)nc1-c1c[nH]c2ccccc12 (stereo not shown) [Example 48, 4-(1H-Indol-3-yl)-5-methyl-N-[4-(methylsulfonimidoyl)-phenyl]pyrimidin-2-amine] | 6 | 160 | 2 | 7 | 16
5 | Cn1cc(-c2nc(Nc3ccc(S(=N)(=O)C4CC4)cc3)ncc2Cl)c2ccccc21 (stereo not shown) [Example 50, 5-Chloro-N-[4-(cyclopropyl-sulfonimidoyl)phenyl]-4-(1-methylindol-3-yl)pyrimidin-2-amine] | 170 | 3000 | 26 | 330 | 190
6 | N=S1(=O)CCN(c2ccc(Nc3ncc(F)c(-c4c[nH]c5ccccc45)n3)cc2)CC1 [Example 58, 5-Fluoro-N-[4-(1-imino-1-oxo-1,4-thiazinan-4-yl)phenyl]-4-(1H-indol-3-yl)pyrimidin-2-amine] | 19 | 120 | 7 | 11 | 15
7 | CS(C)(=O)=Nc1ccc(Nc2ncc(F)c(-c3c[nH]c4ccccc34)n2)cc1 [Example 59, N-[4-[[Dimethyl(oxo)-λ^6-sulfanylidene]amino]phenyl]-5-fluoro-4-(1H-indol-3-yl)pyrimidin-2-amine] | 50 | 130 | 11 | 18 | 22
8 | C=CC(=O)Nc1ccc2c(c1)c(C)cn2-c1nc(Nc2ccc(N=S(C)(C)=O)cc2OCC)ncc1Cl [Example 65, N-[1-[5-Chloro-2-[4-[[dimethyl(oxo)-λ^6-sulfanylidene]amino]-2-ethoxy-anilino]pyrimidin-4-yl]-3-methyl-indol-5-yl]prop-2-enamide] | 7900 | 1300 | 970 | 4000 | 1700
9 | CCC(=O)Nc1ccc2c(ccn2-c2nc(Nc3ccc(N=S(C)(C)=O)cc3)ncc2Cl)c1 [Example 68, N-[1-[5-Chloro-2-[4-[[dimethyl(oxo)-λ^6-sulfanylidene]amino]anilino]-pyrimidin-4-yl]indol-5-yl]propanamide] | 340 | 2400 | 24 | 630 | 320
10 | C=CC(=O)Nc1ccc2c(ccn2-c2nc(Nc3ccc(S(C)(=N)=O)cc3OC)ncc2Cl)c1 (stereo not shown) [Example 71, N-[1-[5-chloro-2-[2-methoxy-4-(methylsulfonimidoyl)-anilino]pyrimidin-4-yl]indol-5-yl]prop-2-enamide] | 3000 | 3400 | 140 | 6000 | 1500
11 | C=CC(=O)Nc1ccc2c(ccn2-c2nc(Nc3ccc(N4CCS(=N)(=O)CC4)cc3)ncc2Cl)c1 [Example 72] | 100 | 240 | 5.7 | 77 | 17
12 | CCC(=O)Nc1ccc2c(ccn2-c2nc(Nc3ccc(N4CCS(=N)(=O)CC4)cc3)ncc2Cl)c1 [Example 73, N-[1-[5-chloro-2-[4-(1-imino-1-oxo-1,4-thiazinan-4-yl)anilino]pyrimidin-4-yl]indol-5-yl]propanamide] | 380 | 1300 | 18 | 290 | 180
13 | C=CC(=O)Nc1ccc2c(ccn2-c2nc(Nc3ccc(S(C)(=N)=O)cc3OC)ncc2C)c1 (stereo not shown) [Example 75, N-[1-[2-[2-methoxy-4-(methylsulfonimidoyl)anilino]-5-methyl-pyrimidin-4-yl]indol-5-yl]prop-2-enamide] | 1600 | 500 | 380 | 5000 | 1100
14 | C=CC(=O)Nc1cccc2c1ccn2-c1nc(Nc2ccc(N=S(C)(C)=O)cc2)ncc1Cl [Example 76, N-[1-[5-Chloro-2-[4-[[dimethyl(oxo)-λ^6-sulfanylidene]amino]anilino]-pyrimidin-4-yl]indol-4-yl]prop-2-enamide] | 370 | 3000 | 12 | 160 | 160
15 | CCC(=O)Nc1cccc2c1ccn2-c1nc(Nc2ccc(N=S(C)(C)=O)cc2)ncc1Cl [Example 77, N-[1-[5-Chloro-2-[4-[[dimethyl(oxo)-λ^6-sulfanylidene]amino]anilino]-pyrimidin-4-yl]indol-4-yl]propanamide] | 260 | 2600 | 7 | 170 | 130
16 | CS(C)(=O)=Nc1ccc(Nc2ncc(Cl)c(-n3ccc4c(NC(=O)C5CC5)cccc43)n2)cc1 [Example 78, N-[1-[5-Chloro-2-[4-[[dimethyl(oxo)-λ^6-sulfanylidene]amino]anilino]-pyrimidin-4-yl]indol-4-yl]cyclopropanecarboxamide] | 290 | 4600 | 5 | 250 | 140
17 | CS(C)(=O)=Nc1ccc(Nc2ncc(Cl)c(-n3ccc4c(N)cccc43)n2)cc1 [Example 79, 1-[5-Chloro-2-[4-[[dimethyl(oxo)-λ^6-sulfanylidene]amino]anilino]-pyrimidin-4-yl]indol-4-amine] | 140 | 1000 | 7 | 140 | 87
18 | CS(C)(=O)=Nc1ccc(Nc2ncc(Cl)c(-n3ccc4cc(NC(=O)C5CC5)ccc43)n2)cc1 [Example 80, N-[1-[5-Chloro-2-[4-[[dimethyl(oxo)-λ^6-sulfanylidene]amino]anilino]-pyrimidin-4-yl]indol-5-yl]cyclopropanecarboxamide] | 680 | 5300 | 23 | 740 | 340
19 | C=CC(=O)Nc1cccc2c1ccn2-c1nc(Nc2ccc(N3CCS(=N)(=O)CC3)cc2)ncc1Cl [Example 81] | 62 | 1900 | 2 | 51 | 23
20 | N=S1(=O)CCN(c2ccc(Nc3ncc(Cl)c(-n4ccc5c(N)cccc54)n3)cc2)CC1 [Example 82, 1-[5-Chloro-2-[4-(1-imino-1-oxo-1,4-thiazinan-4-yl)anilino]pyrimidin-4-yl]indol-4-amine] | 50 | 450 | 2 | 59 | 42
21 | CCC(=O)Nc1cccc2c1ccn2-c1nc(Nc2ccc(N3CCS(=N)(=O)CC3)cc2)ncc1Cl [Example 83, N-[1-[5-Chloro-2-[4-(1-imino-1-oxo-1,4-thiazinan-4-yl)anilino]pyrimidin-4-yl]indol-4-yl]propanamide] | 79 | 1100 | 3 | 86 | 59
22 | C=CC(=O)Nc1ccc2c(ccn2-c2nc(Nc3ccc(N=S(C)(C)=O)c(F)c3)ncc2Cl)c1C [Example 84, N-[1-[5-Chloro-2-[4-[[dimethyl(oxo)-λ^6-sulfanylidene]amino]-3-fluoro-anilino]pyrimidin-4-yl]-4-methyl-indol-5-yl]prop-2-enamide] | 330 | 2300 | 11 | 390 | 150
23 | C=CC(=O)Nc1ccc2c(cnn2-c2nc(Nc3ccc(N=S(C)(C)=O)cc3)ncc2Cl)c1 [Example 86, N-[1-[5-Chloro-2-[4-[[dimethyl(oxo)-λ^6-sulfanylidene]amino]anilino]-pyrimidin-4-yl]indazol-5-yl]prop-2-enamide] | 63 | 240 | 7.1 | 90 | 46
